This note sets out measurements from ChEMBL document CHEMBL5370549, “Optimization and evaluation of pyridinyl vinyl sulfones as Nrf2 activator for the antioxidant and anti-inflammatory effects” (Eur J Med Chem, 2023).

The target in data set [1] is T1, Nuclear factor erythroid 2-related factor 2 (Homo sapiens, UniProt Q16236).
T1 sequence (Q16236 whole entry): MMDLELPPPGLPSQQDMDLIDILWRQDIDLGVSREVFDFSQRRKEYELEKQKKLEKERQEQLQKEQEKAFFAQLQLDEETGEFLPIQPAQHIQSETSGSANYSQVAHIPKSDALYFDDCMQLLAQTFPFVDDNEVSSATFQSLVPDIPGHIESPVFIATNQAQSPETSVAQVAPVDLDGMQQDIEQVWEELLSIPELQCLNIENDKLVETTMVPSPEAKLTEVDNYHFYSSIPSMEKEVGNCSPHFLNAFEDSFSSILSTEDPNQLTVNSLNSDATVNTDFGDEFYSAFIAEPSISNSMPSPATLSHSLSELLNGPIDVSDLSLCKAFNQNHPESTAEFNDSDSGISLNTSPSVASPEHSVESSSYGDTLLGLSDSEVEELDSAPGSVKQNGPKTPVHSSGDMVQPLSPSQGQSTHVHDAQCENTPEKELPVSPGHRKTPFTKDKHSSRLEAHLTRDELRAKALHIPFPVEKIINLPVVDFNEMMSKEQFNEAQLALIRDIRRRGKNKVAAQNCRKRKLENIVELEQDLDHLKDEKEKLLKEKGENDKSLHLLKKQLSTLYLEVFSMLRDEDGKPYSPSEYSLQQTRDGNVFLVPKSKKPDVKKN
Briefly: Activation of Nrf2 in human U2OS cells co-expressing Keap1 assessed as induction of Nrf2 nuclear translocation incubated for 6 hrs by PathHunter chemiluminescence based analysis. Type of data set: cell-based.

The next data set deals with T2, CYP1A2 (Homo sapiens, UniProt P05177).
T2 sequence (P05177 whole entry): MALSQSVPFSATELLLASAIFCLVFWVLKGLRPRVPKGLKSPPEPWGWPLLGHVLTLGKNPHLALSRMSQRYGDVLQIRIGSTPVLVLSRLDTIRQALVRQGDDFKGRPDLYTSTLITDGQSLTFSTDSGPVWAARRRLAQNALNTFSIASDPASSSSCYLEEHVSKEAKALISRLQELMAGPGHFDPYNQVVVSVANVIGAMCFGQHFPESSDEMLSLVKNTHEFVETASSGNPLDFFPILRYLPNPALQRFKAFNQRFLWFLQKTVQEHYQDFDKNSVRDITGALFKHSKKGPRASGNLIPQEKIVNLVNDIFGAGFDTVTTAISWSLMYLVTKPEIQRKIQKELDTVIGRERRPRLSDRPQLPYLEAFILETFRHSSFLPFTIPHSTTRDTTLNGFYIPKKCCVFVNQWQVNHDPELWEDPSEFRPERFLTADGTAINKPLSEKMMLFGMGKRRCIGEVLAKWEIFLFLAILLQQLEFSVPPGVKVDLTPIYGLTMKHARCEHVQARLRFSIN
Briefly: Inhibition of CYP1A2 (unknown origin) assessed as enzyme activity at 10 uM relative to control. It counts as ADME. Set-up: scale not given: the % may be the effect or the level left. The conditions noted are these: read-out: Activity.

The next data set has as its target CYP3A4 (Homo sapiens, UniProt P08684). Briefly: Inhibition of CYP3A4 (unknown origin) assessed as enzyme activity at 10 uM relative to control. It counts as ADME. Set-up: scale not given: the % may be the effect or the level left. The conditions noted are these: read-out: Activity.
The next data set has as its target CYP2C9 (Homo sapiens, UniProt P11712). Briefly: Inhibition of CYP2C9 (unknown origin) assessed as enzyme activity at 10 uM relative to control. Type of data set: ADME. Also on record: scale not given: the % may be the effect or the level left. As to conditions: read-out: Activity.
The target of a further data set is CYP2C19 (Homo sapiens, UniProt P33261). Briefly: Inhibition of CYP2C19 (unknown origin) assessed as enzyme activity at 10 uM relative to control. Type of data set: ADME. Set-up: scale not given: the % may be the effect or the level left. As to conditions: read-out: Activity.
CYP2C19, sequence (P33261 whole entry): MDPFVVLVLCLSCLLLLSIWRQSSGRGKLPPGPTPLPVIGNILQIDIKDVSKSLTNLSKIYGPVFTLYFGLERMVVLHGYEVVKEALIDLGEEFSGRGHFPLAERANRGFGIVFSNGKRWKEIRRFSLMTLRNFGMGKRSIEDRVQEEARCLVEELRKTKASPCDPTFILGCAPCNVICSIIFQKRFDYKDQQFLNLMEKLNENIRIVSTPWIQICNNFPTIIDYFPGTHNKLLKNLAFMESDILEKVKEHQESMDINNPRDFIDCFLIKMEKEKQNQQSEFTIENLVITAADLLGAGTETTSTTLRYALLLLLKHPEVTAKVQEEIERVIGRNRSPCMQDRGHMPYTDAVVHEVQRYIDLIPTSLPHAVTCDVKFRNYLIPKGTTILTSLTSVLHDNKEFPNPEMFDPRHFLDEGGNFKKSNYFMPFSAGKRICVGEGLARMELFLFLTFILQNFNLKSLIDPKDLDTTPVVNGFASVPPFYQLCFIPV
Another data set has as its target CYP2D6 (Homo sapiens, UniProt P10635). Briefly: Inhibition of CYP2D6 (unknown origin) assessed as enzyme activity at 10 uM relative to control. It counts as ADME. Set-up: scale not given: the % may be the effect or the level left. The conditions noted are these: read-out: Activity.
Data set [2] can be described thus: Metabolic stability of the compound in human liver microsomes assessed as parent compound remaining measured after 30 mins. Type of data set: ADME, Microsome. The conditions noted are these: read-out: Stability. For orientation: Liver microsomes are vesicles of endoplasmic reticulum, rich in cytochrome P450 enzymes.
A short description of data set [3]: Metabolic stability of the compound in mouse liver microsomes assessed as parent compound remaining measured after 30 mins. Type of data set: ADME, Microsome. As to conditions: read-out: Stability.
Data set [4] can be described thus: Metabolic stability of the compound in human plasma assessed as parent compound remaining measured after 30 mins. It counts as ADME, cell-free. As to conditions: read-out: Stability.
The nature of data set [5]: Metabolic stability of the compound in rat plasma assessed as parent compound remaining measured after 30 mins. The conditions noted are these: read-out: Stability. Type of data set: ADME, cell-free.

CYP2D6, sequence (P10635 whole entry): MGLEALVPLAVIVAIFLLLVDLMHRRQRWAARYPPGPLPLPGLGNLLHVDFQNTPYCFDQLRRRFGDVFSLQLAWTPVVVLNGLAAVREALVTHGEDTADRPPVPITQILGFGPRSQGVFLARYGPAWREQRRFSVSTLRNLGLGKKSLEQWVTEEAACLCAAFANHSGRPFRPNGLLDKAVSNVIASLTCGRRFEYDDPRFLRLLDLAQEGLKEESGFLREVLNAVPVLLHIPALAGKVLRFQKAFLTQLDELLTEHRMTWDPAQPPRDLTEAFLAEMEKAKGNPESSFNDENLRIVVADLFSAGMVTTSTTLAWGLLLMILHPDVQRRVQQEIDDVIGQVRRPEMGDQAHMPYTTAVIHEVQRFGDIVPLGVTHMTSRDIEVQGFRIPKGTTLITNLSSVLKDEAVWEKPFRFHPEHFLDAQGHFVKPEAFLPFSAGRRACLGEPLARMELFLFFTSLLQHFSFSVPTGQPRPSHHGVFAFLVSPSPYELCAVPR
CYP2C9, sequence (P11712 whole entry): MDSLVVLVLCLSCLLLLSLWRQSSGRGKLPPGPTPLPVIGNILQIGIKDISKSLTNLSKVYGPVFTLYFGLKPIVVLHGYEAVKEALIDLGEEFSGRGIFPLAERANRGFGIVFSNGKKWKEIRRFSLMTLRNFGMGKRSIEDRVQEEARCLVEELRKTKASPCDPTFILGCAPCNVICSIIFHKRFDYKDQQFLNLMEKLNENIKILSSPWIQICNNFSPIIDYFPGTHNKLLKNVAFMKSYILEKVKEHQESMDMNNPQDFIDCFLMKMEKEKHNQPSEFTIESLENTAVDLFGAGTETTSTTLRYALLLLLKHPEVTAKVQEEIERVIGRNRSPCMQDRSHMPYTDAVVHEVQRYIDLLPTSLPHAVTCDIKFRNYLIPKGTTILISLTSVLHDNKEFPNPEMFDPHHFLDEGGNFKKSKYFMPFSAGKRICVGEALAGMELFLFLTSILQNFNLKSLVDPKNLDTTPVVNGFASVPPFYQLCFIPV
CYP3A4, sequence (P08684 whole entry): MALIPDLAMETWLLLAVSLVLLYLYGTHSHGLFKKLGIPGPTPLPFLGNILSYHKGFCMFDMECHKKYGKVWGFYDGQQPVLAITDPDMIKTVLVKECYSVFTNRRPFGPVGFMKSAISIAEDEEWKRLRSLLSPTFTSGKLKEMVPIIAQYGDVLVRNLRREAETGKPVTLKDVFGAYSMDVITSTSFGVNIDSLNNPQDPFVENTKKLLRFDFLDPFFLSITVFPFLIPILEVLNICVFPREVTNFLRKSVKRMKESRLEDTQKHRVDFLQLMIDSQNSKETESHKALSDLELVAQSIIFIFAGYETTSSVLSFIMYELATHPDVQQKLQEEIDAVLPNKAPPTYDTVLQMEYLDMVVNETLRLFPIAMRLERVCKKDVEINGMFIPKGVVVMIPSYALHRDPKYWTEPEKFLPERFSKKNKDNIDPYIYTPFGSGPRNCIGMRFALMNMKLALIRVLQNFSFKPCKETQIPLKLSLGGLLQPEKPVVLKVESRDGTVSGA

`COc1cccnc1S(=O)(=O)/C=C/c1ncccc1C(F)(F)F`: in data set [1], the EC50 (commonly the concentration needed to bring the measured effect to its halfway point) came to 107 nM. Also, the activity at 10 µM is 72.6% at CYP1A2; 36.4% at CYP3A4; 69.7% on CYP2C9; 60.5% at CYP2C19; greater than 99% at CYP2D6. For the same compound, the remaining at 0.5 h in data set [2] was determined as 87.8%; in data set [3], 64.7%; in data set [4] it was 94%; in [5], 84.1%.

As for `COc1ccnc(S(=O)(=O)/C=C/c2cccnc2Cl)c1`, the half-maximal effective concentration (EC50) in data set [1] is 49 nM. For the same compound, the activity at 10 µM on CYP1A2 was 81%; on CYP3A4, 91.5%; on CYP2C9, greater than 99%; at CYP2C19 it was 30.2%; at CYP2D6, 99.8%. In addition, the remaining at 0.5 h was found to be 76.6% in data set [2], 61.4% in [3], 99% in data set [4] and 91.9% in data set [5].

Consider `COc1ccc(S(=O)(=O)/C=C/c2ncccc2C(F)(F)F)nc1`, for which, in data set [1], the EC50 came out at 275 nM. Besides, the activity at 10 µM is 61.1% at CYP1A2; 88.9% at CYP3A4; greater than 99% on CYP2C9; 21.7% on CYP2C19; greater than 99% at CYP2D6. The remaining at 0.5 h in [2] is 57.2%; in data set [3], 60.1%; in [4], 96.2%; in [5], 91.9%.

As to `COc1ccnc(S(=O)(=O)/C=C/c2cccc(Cl)c2)c1`, the EC50 in data set [1] was found to be 824 nM. Moreover, the activity at 10 µM on CYP1A2 was 63.4%; on CYP3A4, 38.2%; at CYP2C9, greater than 99%; at CYP2C19, 7%; on CYP2D6, 97.2%. The remaining at 0.5 h in data set [2] was 54.6%; in data set [3], 8.7%; in [4] it was greater than 99%; in [5], 94.7%.

Regarding `COc1cccc(S(=O)(=O)/C=C/c2ncccc2C(F)(F)F)n1`, the EC50 in data set [1] was 194 nM. Moreover, the activity at 10 µM on CYP1A2 is 18.2%; on CYP3A4, 32.5%; at CYP2C9, 81.9%; on CYP2C19, 15.1%; at CYP2D6 it was greater than 99%. In addition, the remaining at 0.5 h in data set [2] came to 38.8%; in data set [3], 4%; in [4], 94.2%; in data set [5] it was 82.7%.

On to `COc1ccnc(S(=O)(=O)/C=C/c2ccc(Cl)cc2)c1`, for which the EC50 in data set [1] is 1220 nM. Also, the activity at 10 µM on CYP1A2 is 49%; at CYP3A4, 85.8%; on CYP2C9 it was greater than 99%; on CYP2C19, 10.5%; on CYP2D6, 98.5%. For the same compound, the remaining at 0.5 h is 37.8% in data set [2], 18.8% in [3], greater than 99% in [4] and greater than 99% in data set [5].

Turning to `COc1cccnc1S(=O)(=O)/C=C/c1ccccc1C(F)(F)F`, in [1], the EC50 was 146 nM. For the same compound, the activity at 10 µM at CYP1A2 is 71.2%; at CYP3A4, 76%; at CYP2C9 it was 79.2%; at CYP2C19, 59.1%; on CYP2D6 it was 99.1%. Moreover, the remaining at 0.5 h in data set [2] is 52.9%; in data set [3] it was 17.8%; in data set [4] it was 96.8%; in data set [5], 93.5%.

As to `COc1ccnc(S(=O)(=O)/C=C/c2ccc(Cl)cn2)c1`, the EC50 in [1] is 1310 nM. The activity at 10 µM at CYP1A2 is 33.3%; at CYP3A4, 95.1%; at CYP2C9 it was greater than 99%; at CYP2C19 it was 10.7%; at CYP2D6, 96.3%. In addition, the remaining at 0.5 h in [2] was 70.3%; in data set [3], 67.6%; in data set [4] it was 91.1%; in [5], 84.8%.

Take `COc1ncccc1S(=O)(=O)/C=C/c1ccccc1C(F)(F)F`: the EC50 in data set [1] came out at 749 nM. For the same compound, the activity at 10 µM at CYP1A2 was 12.4%; on CYP3A4 it was 51.7%; at CYP2C9, greater than 99%; on CYP2C19, 16.2%; at CYP2D6, 94.4%. In addition, the remaining at 0.5 h turned out to be 75.2% in data set [2], 48.1% in [3], 91.3% in [4] and 89.3% in data set [5].

Take `COc1ccnc(S(=O)(=O)/C=C/c2ccccc2Cl)c1`: the EC50 in [1] worked out at 58 nM. Besides, the activity at 10 µM on CYP1A2 worked out at 28.5%; on CYP3A4 it was 49.8%; on CYP2C9, 73.6%; at CYP2C19, 11.1%; at CYP2D6, 97.5%. For the same compound, the remaining at 0.5 h was 22.8% in [2], 2.2% in [3], greater than 99% in data set [4] and 96.5% in data set [5].

For the compound `COc1ncccc1S(=O)(=O)/C=C/c1ncccc1Cl`, the 50% effective concentration (EC50) in data set [1] is 75 nM. Further, the activity at 10 µM on CYP1A2 is 31%; on CYP3A4, 53%; on CYP2C9, greater than 99%; at CYP2C19 it was 15%; on CYP2D6 it was greater than 99%. For the same compound, the remaining at 0.5 h turned out to be 77.6% in data set [2], 59.2% in data set [3], 98.5% in data set [4] and 91.3% in data set [5].

Regarding `COc1cccc(S(=O)(=O)/C=C/c2ncccc2Cl)n1`, in data set [1], the 50% effective concentration (EC50) was determined as 93 nM. Besides, the activity at 10 µM at CYP1A2 is 23.1%; at CYP3A4, 36.8%; on CYP2C9 it was greater than 99%; on CYP2C19, 12.5%; at CYP2D6, 96%. Further, the remaining at 0.5 h is 49.4% in data set [2], 9.6% in [3], greater than 99% in [4] and 83% in data set [5].

Take `COc1ccnc(S(=O)(=O)/C=C/c2ncccc2Cl)c1`: the EC50 in [1] amounted to 30 nM. Besides, the activity at 10 µM at CYP1A2 is 69.9%; on CYP3A4, 70.9%; on CYP2C9, 76.1%; at CYP2C19, 27.6%; at CYP2D6 it was 100%. For the same compound, the remaining at 0.5 h in data set [2] turned out to be 61.7%; in data set [3], 36.8%; in data set [4] it was 95%; in data set [5] it was 65.9%.

For the compound `COc1cccc(S(=O)(=O)/C=C/c2ccccc2Cl)n1`, in [1], the EC50 came to 231 nM. The activity at 10 µM on CYP1A2 was 6.73%; at CYP3A4 it was 28%; at CYP2C9 it was greater than 99%; at CYP2C19, 7.7%; on CYP2D6, 97.6%. Moreover, the remaining at 0.5 h was 13.8% in data set [2], 4.4% in data set [3], greater than 99% in [4] and 98.9% in [5].

Turning to `COc1cccc(S(=O)(=O)/C=C/c2ccccc2C(F)(F)F)n1`, the EC50 in [1] is 316 nM. Besides, the activity at 10 µM at CYP1A2 worked out at 4.9%; at CYP3A4 it was 30.6%; on CYP2C9, 71%; at CYP2C19, 13.2%; at CYP2D6, 91.7%. Also, the remaining at 0.5 h in [2] was 19.3%; in data set [3], 6%; in [4], 98.4%; in data set [5], 91.8%.
